Here are results for 8 molecules from patent US20160069887A1, “BIOMARKERS FOR PROGNOSIS” (ISIS INNOVATION LIMITED, priority 2013, published 2016).

Test [1] deals with U2OS cells. The test can be described thus: Immunoblot for apoptosis (PARP) and autophagy (LC3 cleavage). The format is cell-based. The conditions noted are these: co-treatment SAHA and 3-methyladenine (10 mM) for 18 hr.
Test [2] relates to Flag-HDAC6 stable inducible cell line. The test can be described thus: Immunoblot of endogenous HR23B and cleaved caspase 3 upon induction of Flag-HDAC6. The conditions noted are these: for HDAC6-dependent down-regulation of HR23B: Dox-induced Flag-HDAC6, 3MA 5 and 10 mM, 17-AAG 0.1 or 1 μM, tubastatin 10 μM, bortezomib 48 hr. In general terms: Immunoblotting shows a protein as a band on a membrane.

In test [3] the test system is U2OS cells. The test can be described thus: Global ubiquitination (His6-ubiquitin, Ni2+ pull-down, anti-His immunoblot). The format is cell-based. The conditions noted are these: for global ubiquitination, SAHA and MG132 combined: SAHA 5 μM 20 hr and MG132 20 μM 4 hr. Here is the method: Cell lysates and Ni^2+ pull-down eluates were analyzed by immunoblotting with anti-His as described. The input HR23B is shown underneath, together with actin levels.
Ni^2+ pull-down eluates were analyzed by immunoblotting with anti-His. The input HR23B level is shown underneath, together with actin levels.
Transfected cells in a 10 cm dish were washed twice with ice-cold PBS and harvested into 1 ml of 8M urea, 0.1 M Na2HPO4/NaH2PO4, 0.01M Tris-HCl, and pH8.0. Lysates were sheared by taking through 23 gauge needle to reduce viscosity. Protein concentration was measured with Bradford (Bio-Rad) and normalised. About 100 μl of lysate was mixed with 4×SDS loading buffer for input. Then 900 μl of lysate was incubated with 70 μl of a 50% slurry of nickel (Ni^2+-NTA)-agarose beads (Qiagen), 5 mM imidazole and 10 mM β-mercaptoethanol overnight at 4° C. The beads were collected by 1 min centrifugation at 8,000 rpm and washed with 750 μl of the following buffers with 5 min mixing at room temperature for each washing step: twice with 8M urea, 0.1M Na2HPO4/NaH2PO4, 0.01 M Tris-HCl, pH 8.0, 10 mM β-mercaptoethanol and 0.1% Triton X-100; three times with 8M urea, 0.1M Na2HPO4/NaH2PO4, 0.01M Tris-HCl, pH 6.3, 10 mM β-mercaptoethanol and 0.1% Triton X-100. The bound proteins were then eluted with 100 μl of elution buffer (200 mM imidazole, 5% SDS, 150 mM Tris-HCl pH6.8, 30% glycerol, 720 mM β-mercaptoethanol, 0.005% bromophenol blue) for 30 min incubation followed by 10 min spin at 13,000 rpm. Samples were heated to 95° C. for 5 min, cooled, and a typical volume of 30 μl loaded on each lane for immunoblot analysis.

Test [4] deals with HUT78, MYLA (CTCL), A2058, A375 (melanoma), HCT116 and HCT15 (CRC). The test can be described thus: Immunoblot of autophagy markers and HR23B in tumour cell lines treated with HDAC inhibitors. The format is cell-based. The conditions noted are these: for autophagy markers (LC3 cleavage, LAMP1, cathepsin D): immunoblot after 18 hr or 24 hr treatment.
Test [5] has as its system U2OS cells. The test can be described thus: Visualisation of autophagosomes by anti-LC3 immunostaining. The format is cell-based. Here is the method:
Counter-stain with DAPI was superimposed for each image.
Cells seeded onto coverslips were washed in PBS and fixed in 3.7% formaldehyde for 15 min. Cells were permeabilised in PBS containing 0.5% Triton X-100 for 5 min and then blocked in 5% FCS/PBS for 30 min at room temperature before incubation with primary antibody as indicted. Coverslips were washed in PBS containing 0.05% Tween-20 and incubated with corresponding secondary antibodies for 30 min at room temperature. Alexa Fluro 488 (green fluorescence) or Alexa Fluor 594 (red fluorescence) (Molecular Probes). Finally coverslips were washed extensively in PBS containing 0.05% Tween-20 and mounted onto microscope slides using Vectashield containing DAPI (Vector Laboratories).

The subject of test [6] is patients after potentially-curative surgery for stage II/III colorectal cancer. The conditions noted are these: 1167 rofecoxib patients; median follow-up 4.84 years; cited from earlier work.
Test [7] addresses T1, Flag-HDAC6 (wild-type, full length, ectopic) (human, UniProt Q9UBN7 1-1215).
T1 construct: Expressed by transfection or by doxycycline induction in U2OS cells; also called pcDNA-Flag-HDAC6; WT HDAC6; not shown: Flag tag
T1 sequence: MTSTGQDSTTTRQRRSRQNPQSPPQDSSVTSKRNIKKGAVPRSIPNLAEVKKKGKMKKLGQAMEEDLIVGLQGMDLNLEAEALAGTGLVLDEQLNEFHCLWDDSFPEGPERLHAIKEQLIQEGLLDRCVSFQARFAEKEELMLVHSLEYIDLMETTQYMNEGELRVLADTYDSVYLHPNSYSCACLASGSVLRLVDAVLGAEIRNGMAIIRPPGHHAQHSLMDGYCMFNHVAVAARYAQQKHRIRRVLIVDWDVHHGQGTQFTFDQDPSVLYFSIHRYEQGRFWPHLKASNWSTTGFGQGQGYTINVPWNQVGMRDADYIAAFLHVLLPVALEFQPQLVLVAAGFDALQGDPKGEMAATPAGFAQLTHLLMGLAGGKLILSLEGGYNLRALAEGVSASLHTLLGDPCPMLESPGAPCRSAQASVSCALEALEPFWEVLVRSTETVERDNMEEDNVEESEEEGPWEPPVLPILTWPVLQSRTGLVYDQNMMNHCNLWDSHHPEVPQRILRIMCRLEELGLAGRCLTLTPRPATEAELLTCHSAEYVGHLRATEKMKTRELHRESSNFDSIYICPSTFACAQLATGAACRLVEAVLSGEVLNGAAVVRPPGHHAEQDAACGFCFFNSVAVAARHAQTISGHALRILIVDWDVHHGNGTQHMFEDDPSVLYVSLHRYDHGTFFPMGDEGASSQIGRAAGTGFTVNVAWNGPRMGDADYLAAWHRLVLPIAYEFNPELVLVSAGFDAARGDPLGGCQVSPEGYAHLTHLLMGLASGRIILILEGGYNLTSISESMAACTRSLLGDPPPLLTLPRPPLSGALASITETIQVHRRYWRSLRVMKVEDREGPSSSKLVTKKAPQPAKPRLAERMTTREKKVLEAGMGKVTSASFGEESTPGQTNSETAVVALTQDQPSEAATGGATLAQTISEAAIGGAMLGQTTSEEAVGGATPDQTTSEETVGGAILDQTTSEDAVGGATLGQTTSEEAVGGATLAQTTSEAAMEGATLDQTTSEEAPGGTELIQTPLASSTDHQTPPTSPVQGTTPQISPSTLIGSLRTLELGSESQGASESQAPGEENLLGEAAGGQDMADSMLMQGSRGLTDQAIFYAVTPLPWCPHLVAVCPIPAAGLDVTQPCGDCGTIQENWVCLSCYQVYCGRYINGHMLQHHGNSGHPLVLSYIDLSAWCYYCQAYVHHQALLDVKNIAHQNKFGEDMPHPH
The experiment in a line: anti-Flag co-immunoprecipitation of Flag-HDAC6 from co-transfected U2OS cells, anti-Myc immunoblot.

Where a SMILES comes first, the peptide text is derived from it. The star is where a group is joined. Cbz = O=C(OCc1ccccc1)*

Consider `Cn1cnc(N)c2ncnc1-2` [3-MA, 3-methyladenine], for which, in the test with U2OS cells [1], the level of apoptosis entry is on record as “an enhanced level of apoptosis was apparent”. In test [2], the “HDAC6-dependent down-regulation of HR23B” value was “failed to affect down-regulation of HR23B by HDAC6”.
On to `C=CCNC1=C2C[C@@H](C)C[C@H](OC)[C@H](O)[C@@H](C)/C=C(\C)[C@H](OC(N)=O)[C@@H](OC)/C=C\C=C(/C)C(=O)NC(=CC1=O)C2=O` [17-AAG], for which the “HDAC6-dependent down-regulation of HR23B” value in test [2] is listed as “HDAC6 failed to down-regulate HR23B”.
On to `CC(C)C[C@@H](C=O)NC(=O)[C@H](CC(C)C)NC(=O)[C@H](CC(C)C)NC(=O)OCc1ccccc1` [MG132] (Cbz-Leu-Leu-Leu-aldehyde), for which the “global ubiquitination, SAHA and MG132 combined” value with U2OS cells [3] is “even greater level of ubiquitination”. Further, in the test on U2OS cells [3] (SAHA 5 μM 20 hr or MG132 20 μM 4 hr, vs untreated), the “global ubiquitination, single agent” value is recorded as “increase in ubiquitination”.
Regarding `O=C(CCCCCCC(=O)Nc1ccccc1)NO` [SAHA, N-hydroxy-N′-phenyloctanediamide], in the test on U2OS cells [1], the level of apoptosis entry is given as “an enhanced level of apoptosis was apparent”. In test [4] (at increasing SAHA concentration, coinciding with autophagocytic markers), the “level of HR23B” value is on record as “decreased levels of HR23B”. Moreover, in test [4], the “autophagy markers (LC3 cleavage, LAMP1, cathepsin D)” value was “caused LC3 cleavage as well as the appearance of LAMP1 and cathepsin D”. In the test with U2OS cells [5] (SAHA 10 μM for 18 hr, + vs − doxycycline), the “autophagosomes when ectopic HR23B was expressed” value is listed as “less evident”. In addition, the “visual appearance of autophagosomes” value in the test on U2OS cells [5] (SAHA 10 and 20 μM) is recorded as “visual appearance of autophagosomes in cells”. The “global ubiquitination, SAHA and MG132 combined” value in the test with U2OS cells [3] is reported as “even greater level of ubiquitination”.
`CS(=O)(=O)c1ccc(C2=C(c3ccccc3)C(=O)OC2)cc1` [rofecoxib]: in test [6], the deaths is listed as 241 and the recurrences is 297.
Regarding `CCCC(CCC)C(=O)O` [valproic acid, 2-Propylpentanoic acid], the “autophagy markers (LC3 cleavage, LAMP1, cathepsin D)” value in test [4] is recorded as “resulted in similar effects”.
On to tubastatin, for which, in test [2], the “HDAC6-dependent down-regulation of HR23B” value is listed as “did not impact on the HDAC6-dependent down-regulation of HR23B”. For the same molecule, the “increase in HR23B upon 17-AAG treatment” value in test [2] (tubastatin 10 μM together with 17-AAG) is listed as “did prevent the increase in HR23B upon 17-AAG treatment”.

B1: HR23B ΔUbL, myc/his tagged (other)
chain: AVSTPAPATTQQSAPASTTAVTSSTTTTVAQAPTPVPALAPTSTPASITPASATASSEPAPASAAKQEKPAEKPAETPVATSPTATDSTSGDSSRSNLFEDATSALVTGQSYENMVTEIMSMGYEREQVIAALRASFNNPDRAVEYLLMGIPGDRESQAVVDPPQAASTGAPQSSAVAAAAATTTATTTTTSSGGHPLEFLRNQPQFQQMRQIIQQNPSLLPALLQQIGRENPQLLQQISQHQEHFIQMLNEPVQEAGGQGGGGGGGSGGIAEAGSGHMNYIQVTPQEKEAIERLKALGFPEGLVIQAYFACEKNENLAANFLLQQNFDED
notes: not shown: myc/his tag from the pcDNA3.1 (+)/Myc-His vector
With B1, the binding result in test [7] is recorded as “no binding”.
